Data as given in patent publication US20100016274A1, “BETA-LACTAM CANNABINOID RECEPTOR MODULATORS” (priority 2006, published 2010).

Target: T1, hCB2 (membranes from hCB2 stably transfected CHO cells) (Homo sapiens, UniProt P34972)
T1 construct: purchased Perkin Elmer/NEN; host or cells: CHO cells, stably transfected
Experiment: Cannabinoid Receptor-2 (CB2) Functional Activity Assay, Method A (35S-GTPγS)
Format: biochemical
Settings: positive control, FIG. 9a
Experimental: Membranes are diluted in ice-cold assay buffer (10 mM HEPES, 100 mM NaCl, 10 mM MgCl2, 2 μM GDP, 0.2% FAF-BSA, 10 μg/mL saponin) to 38 μg membranes/mL. Dilute ^35S-GTPγS to 1 nM in assay buffer. […] These solutions are incubated for 30 minutes at 30° C. The filters are washed 6 times with 10 mM sodium phosphate buffer (pH 7.4) at ambient temperature. The filters are counted using a liquid scintillation counter on the ^35S channel. Each compound/concentration is run in triplicate. A positive antagonism control is run for AM630 at the same concentrations as test compounds under the same conditions.

T1 sequence (P34972 whole entry): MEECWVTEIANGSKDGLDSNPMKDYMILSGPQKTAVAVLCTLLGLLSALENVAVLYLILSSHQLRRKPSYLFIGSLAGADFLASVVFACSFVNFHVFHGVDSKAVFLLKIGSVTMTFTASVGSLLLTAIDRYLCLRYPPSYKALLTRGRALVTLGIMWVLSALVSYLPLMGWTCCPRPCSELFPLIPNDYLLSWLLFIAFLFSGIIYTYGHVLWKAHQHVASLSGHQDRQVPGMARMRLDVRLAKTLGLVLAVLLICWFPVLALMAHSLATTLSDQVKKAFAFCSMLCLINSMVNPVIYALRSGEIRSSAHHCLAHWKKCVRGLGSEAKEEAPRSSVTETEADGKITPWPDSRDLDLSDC

SMILES: CCCCCCC(C)(C)c1ccc(C2CC(O)CCC2CCCO)c(O)c1 (stereo not shown) [CP55940, 5-(1,1-dimethylheptyl)-2-[5-hydroxy-2-(3-hydroxypropyl)-cyclohexyl]-phenol]
- agonism of CB2 receptors: agonism
